From patent US20230407373A1 (priority 2020, published 2023)
“Also recorded” adds a separate entry of the source. Where two headings read alike, the source gives them in different places.

How the values were obtained:
[1] = test system: SARS-CoV-2 gRNA and sgRNAs; assay type: binding; settings: for target (unweighted spectral count in RNP capture): Probe II capture, LC-MS/MS LFQ; for background (unweighted spectral count in control): no-probe control pull-down, used as background for Probe II
[2] = test system: gRNA of HCoV-OC43; assay type: binding; settings: for target (spectral count) / background (spectral count): type g_36_m, 36 hpi, Probe I; for target (spectral count): HCoV-OC43-infected HCT-8 cells; for background (spectral count): uninfected-probe control
[3] = test system: HCoV-OC43 gRNA and sgRNA; assay type: binding; settings: for target (unweighted spectral count, OC43 Probe II capture): tested against no-probe control, FDR<10%; for target (unweighted spectral count, OC43 Probe II) / background (unweighted spectral count, no-probe control): type n_48_v, 48 hpi; for target (unweighted spectral count, OC43 Probe II): OC43 Probe II capture on infected cells; for background (unweighted spectral count, no-probe control): no-probe control on infected cells
[4] = test system: SARS-CoV-2; assay type: cell-based; settings: Calu-3 cells, 50 nM siRNA, RT-qPCR, relative to siNC
[5] = test system: SARS-CoV-2 gRNA; assay type: binding

Substance | target (unweighted spectral count in RNP capture) [1] | background (unweighted spectral count in control) [1] | target (spectral count) [2] | background (spectral count) [2] | target (unweighted spectral count, OC43 Probe II capture) ([3]; 24 hpi, type n_24_v) | target (unweighted spectral count, OC43 Probe II) [3] | background (unweighted spectral count, no-probe control) [3] | change in viral RNA levels (gRNA, N sgRNA) after siRNA depletion [4] | enrichment in SARS-CoV-2 Probe I RNP capture [5] | target (unweighted spectral count of the protein in the RNP capture) ([5]; […], LC-MS/MS, Probe I sample (first 199 lines of Table 2)) | enrichment in SARS-CoV-2 Probe II RNP capture [1] | target (spectral count, OC43 Probe I RNP capture) ([2]; type n_48_v: 48 hours post-infection, infected cells, OC43 Probe I, unweighted spectral count) | background (spectral count, no-probe control) ([2]; type n_48_v: 48 hours post-infection, no-probe control on infected cells) | target (unweighted spectral count, OC43 Probe II capture) ([3]; 36 hpi, type n_36_v) | target (spectral count) ([3]; type s_36_m, HCoV-OC43-infected HCT-8 cells, 36 hpi, Probe II) | background (spectral count) ([3]; type s_36_m, uninfected-probe control, 36 hpi, Probe II)
TRIM25: host protein, UniProt Q14258 | 20 | 1 | 14 | 1 | 5 | 13 | 3 | increased viral RNAs | – | – | – | – | – | – | – | –
EIF4H: host protein, UniProt Q15056 | 31 | 1 | 8 | 1 | 5 | 9 | 1 | – | enriched; also recorded: found in the SARS-CoV-2 experiments | 25 | enriched; also recorded: found in the SARS-CoV-2 experiments | 9 | 1 | 8 | 8 | 1
